Measurements: patent US20210030796A1, “METHOD FOR PRODUCING ANTIGEN-SPECIFIC T CELLS” (Thyas Co. Ltd., priority 2019, published 2021)

What was measured:
[1] = test system: mononuclear cells from peripheral blood of a healthy subject (CD137+ T cells); assay: T cell activation by EBV-LMP2A antigenic peptide stimulation, CD137 flow cytometry; format: cell-based, human; settings: addition of CMA (0.3 to 3 μM per Example 1), two samples of PBMC from a healthy subject
Experimental: Re-inoculate in a 24-well plate. Add 0.3 to 3 μM Concanamycin A to a medium and incubate at 37° C. and 5% CO2 for 2 hours. Add 10 μg/ml EBV LMP2A peptide and culture at 37° C. and 5% CO2 for 24 hours. Suspend 2×10^6 cells of peripheral blood mononuclear cells (PBMC) separated from peripheral blood of a healthy subject in a MEM-alpha medium added with 10% FBS, 200 U IL-2 and 20 μg/ml IL-15, and add 10 μg/ml EBV LMP2A peptide. Start culturing at 37° C. and 5% CO2. Replace the medium and divide the wells every 2 to 5 days according to amplification rate of the cells. Culture for 12 days. Collect the cells on day 12 and re-inoculate in a 24-well plate at 2×10^6 cells/well. Add 0.3 to 3 μM Concanamycin A to the medium and incubate at 37° C. and 5% CO2 for 2 hours. Then, add 10 μg/ml EBV LMP2A peptide and culture at 37° C. and 5% CO2 for 24 hours. After 24 hours, stain the cells with CD8-PerCP/Cy5.5 antibody and CD137-PE antibody, and analyze using a flow cytometer (BD FACS Aria II).

[2] = test system: mononuclear cells from peripheral blood of a leukemia patient (CD137-expressing T cells); assay: T cell activation by WT1 antigenic peptide stimulation, CD137 expression; format: cell-based, human; settings: FIG. 3; medium added with 1 μM CMA; two samples of PBMC from a leukemia patient

C/C=C/[C@H]1O[C@@](O)([C@@H](C)[C@H](O)[C@H](C)[C@H]2OC(=O)/C(OC)=C/C(C)=C/[C@@H](C)[C@@H](O)[C@@H](CC)[C@@H](O)[C@H](C)C/C(C)=C/C=C/[C@@H]2OC)C[C@@H](O[C@H]2C[C@@H](O)[C@H](OC(N)=O)[C@@H](C)O2)[C@@H]1C [Concanamycin A]
percentage of CD137+ T cells activated with EBV-LMP2A peptide ([1]; FIG. 1): increased
number of CD137+ T cells activated with EBV-LMP2A peptide ([1]; FIG. 2): increased
percentage of T cells activated (CD137-expressing) by WT1 peptide stimulation [2]: induced
